Consider one molecule from the NIST ThermoML archive (doi:10.1016/j.jct.2015.08.028).

Numbers after ± are expanded uncertainties.

For series [1] the following is noted: Crystal; DTA.
Series [2] in a line: Molar enthalpy of transition or fusion. The settings on record: Crystal; DSC.

Turning to `CC1=C(O)C(=O)C(C)O1` (configuration not stated) [4-hydroxy-2,5-dimethyl-3(2H)-furanone], the Normal melting temperature in series [1] is 80.8 ± 1.6 °C. Further, in series [2], the “Molar enthalpy of transition or fusion” value amounted to 4.61 ± 0.12 kcal/mol.
